Reference: patent publication US20210333284A1, “METHODS AND MATERIALS FOR LARGE-SCALE ASSESSMENT OF LIGAND BINDING SELECTIVITY OF G-QUADRUPLEX RECOGNITION USING CUSTOM G4 MICROARRAYS” (Purdue Research Foundation, priority 2020, published 2021)

Legend:
[1] = test system: MYC G4 flanking variants 5′-NNGGGTGGGGAGGGTGGGNN-3′; assay: G4 microarray competition with Cy5-PDS, flanking (tail) variants; parameters: species or system human; conditions: from reduction of Cy5-PDS binding in the presence of competitor
Excerpt: Whether the microarray platform could be used to reveal the G4-binding specificity of unlabeled molecules via a competition with Cy5-PDS binding was explored. Three example molecules, unlabeled PDS, TMPyP4 (a planar molecule that nonspecifically binds G4 structures^14), and DC-34 (a molecule that selectively binds the MYC G4^15) were examined. […] The binding of unlabeled DC-34 was examined (FIG. 4). There appear to be no features that are better-bound in the presence of DC-34. […] This is consistent with the observation that DC-34 binds the top and bottom surfaces of the G4 and makes specific contacts with purines in the tail sequences.^15 The general properties of features in which DC-34 reduced binding of Cy5-PDS (ratio of PDS/PDS+DC-34) were also examined. […]
DNA Microarray Binding Experiments DNA microarray experiments were performed and analyzed as described previously. […]
Data Processing and Analysis Molecule-bound microarrays were scanned with an Agilent G5761A SureScan Dx Microarray Scanner System to detect Cy5 signal at two laser settings (30 and 100 PMT). Spot intensities from microarray images were extracted using Agilent Feature Extraction Software and are reported as raw fluorescence intensities. […]

[2] = test system: G4 sequences on custom G4 microarray; assay: G4 microarray competition of unlabeled molecule with Cy5-PDS; format: binding, human
Excerpt: Whether the microarray platform could be used to reveal the G4-binding specificity of unlabeled molecules via a competition with Cy5-PDS binding was explored. Three example molecules, unlabeled PDS, TMPyP4 (a planar molecule that nonspecifically binds G4 structures^14), and DC-34 (a molecule that selectively binds the MYC G4^15) were examined. […] The binding of unlabeled DC-34 was examined (FIG. 4). There appear to be no features that are better-bound in the presence of DC-34. […] This is consistent with the observation that DC-34 binds the top and bottom surfaces of the G4 and makes specific contacts with purines in the tail sequences.^15 The general properties of features in which DC-34 reduced binding of Cy5-PDS (ratio of PDS/PDS+DC-34) were also examined.
Microarrays were preincubated with a 100 mM potassium chloride solution for 1 h at RT to induce G4 formation. Protein binding microarray experiments were then performed as previously described.^23 Microarrays were blocked with 4% nonfat dry milk in a potassium phosphate buffer before incubation with proteins or small molecules. Expressed proteins were blocked with 4% nonfat dry milk, ssDNA, and BSA. For the validation experiments, microarrays were also treated with 100 mM lithium chloride to inhibit G4 formation. For experiments examining dsDNA, single-stranded DNA probes were made double-stranded using a primer complementary to a 24-mer constant sequence following the method described previously.^23,24 Double stranding efficiency was monitored using 4% Cy3-dCTP.
Protein or molecule-bound microarrays were scanned with the G5761A SureScan Dx Microarray Scanner System (Agilent) to detect a Cy5 signal at two laser settings (30 and 100 PMT) to ensure signal intensities were below saturation. Spot intensities from microarray images were extracted using the Agilent Feature Extraction Software and are reported as raw fluorescence units. All binding assays were performed at least twice, with high agreement between replicates (R>0.8). Microarrays with the fewest number of saturated spots were used for further analysis. […] The measured array data (Design 3, PDS) and predictions were normalized using the following
Custom G4 microarrays have been designed that contain a total of 19,249 G4 DNA sequences [31, the entirety of disclosure of which, including the supplemental information, is incorporated herein by reference]. […] After washing to remove the unbound Cy5-PDS and BMVC, the fluorescence intensities of Cy5-PDS bound to DNA oligonucleotides were detected using a fluorescence scanner. The binding selectivity of BMVC to different G4 structures was assessed by measuring the relative fluorescence intensity reduction of Cy5-PDS as BMVC concentration increased. […]

[3] = molecular target: various G4 structures (MYC, VEGF, human telomeric G4s); assay: Apparent dissociation constant by BMVC fluorescence; format: binding; conditions: 20 nM BMVC, 25° C.
Experimental: FIG. 11 Apparent dissociation constant (Kd, app) of BMVC binding to various G4 structures determined by BMVC fluorescence. Conditions: 20 nM BMVC, 25° C., pH 7, 100 mM K+ (100 mM Na+ for wtTel22).

## C[n+]1ccc(/C=C/c2ccc3[nH]c4ccc(/C=C/c5cc[n+](C)cc5)cc4c3c2)cc1.[I-].[I-] [BMVC, 3,6-Bis(1-methyl-4-vinylpyridinium) carbazole diiodide]
[1]
  flanking sequence preference of competitor: strongly prefers the MYC G4 with the 3′-flanking T
[2]; 1 μM unlabeled ligand and 1 μM Cy5-PDS
  binding selectivity profile to different G4 sequences: more pronounced binding selectivity
[2]; most known G4s, 1 μM Cy5-PDS, equimolar (1 μM) BMVC
  reduction of fluorescence intensity of Cy5-PDS: 50%
[3]; pH 7, 100 mM K+
  apparent dissociation constant (Kd, app), ranking for MYC_14/23T G4: highest affinity
[3]; pH 7, 100 mM K+ (100 mM Na+ for wtTel22)
  binding to parallel G4s (MYC, VEGF) vs human telomeric G4s by fluorescence: stronger than the human telomeric G4s
